Assay results taken from patent US20120269802A1, “Treatment And Prognosis With Thalidomide In Multiple Myeloma Based on Karyotyping And Gene Expression Profiling” (Board Of Trustees Of The University Of Arkansas, priority 2009, published 2012).

Test system: multiple myeloma
Test: Total Therapy 2 (TT2) randomized trial, control arm vs thalidomide arm: survival (Kaplan-Meier, Cox regression)
Type: in vivo, patients
Conditions: for Overall Survival HR (95% CI), randomization to thalidomide: all patients with GEP data
Excerpt: To clarify the underlying mechanism, survival was examined in the 351 patients for whom gene expression profiling and cytogenetic data were available. […] Survival in the context of cytogenetic abnormalities involving chromosomal loci (CA1, CA13) was also examined. Statistical methods including Cox regression modeling were employed to define variables independently impacting outcomes.
Of all 668 patients accrued to TT2, the 351 with gene expression profiling data available on CD138-purified plasma cells prior to initiation of therapy are the subjects of this report. […] The sole clinical outcome focus in this example is the overall survival measured from initiation of therapy.
Kaplan-Meier methods were used to generate survival distribution graphs and comparisons were made using the log-rank test. Categorical comparisons were made using the chi-squared test. Running log-rank tests were used to determine optimal cut points for IL6R expression levels. Multivariate analyses applied stepwise selection and Cox proportional hazard regression modeling.
In each of Tables 2-3: HR—Hazard Ratio, 95% Cl-95% Confidence Interval, P-value from Wald Chi-Square Test in Cox Regression NS2-Multivariate results not statistically significant at 0.05 level. All univariate p-values reported regardless of significance. Multivariate model uses stepwise selection with entry level 0.1 and variable remains if meets the 0.05 level. A multivariate p-value greater than 0.05 indicates variable forced into model with significant variables chosen using stepwise selection. Variables considered for the multivariate model were: Cytogenetic abnormalities, CA1, CA13, CA 1+13, Albumin <3.5 g/dL, B2M >5.5 mg/L, Creatinine ≧2 mg/dL, Hb <10 g/dL, LDH ≧190 U/L, GEP high-risk, GEP TP53 deletion, GEP IL6R expression ≧2900, GEP CKS1B Q4, Randomization to thalidomide, IL6R and CA 1+13 (interaction term).

With `O=C1CCC(N2C(=O)c3ccccc3C2=O)C(=O)N1` (stereo not shown) [thalidomide] the 7-year survival estimate (GEP-defined low-risk myeloma, subset displaying cytogenetic abnormalities, thalidomide arm vs 30% on control arm, p=0.004 (FIG. 1B)) was 67%, the “outcome vs control arm” value (all patients with GEP-defined low-risk myeloma, p=0.13) was “only trending toward better outcomes” and the 5-year survival estimate (low-risk patients, CA1/13 subgroup (CA without both CA1 and CA13), addition of thalidomide vs 59% control, p<0.001 (FIG. 1C)) was 95%. For the same compound, the “survival outcomes on both treatment arms” value (low-risk patients, subgroups with no cytogenetic abnormalities and with CA1+13 (FIG. 1C)) was “similar”, the “Overall Survival HR (95% CI), randomization to thalidomide” value (multivariate analysis, n/N 168/337, P 0.037) was 0.69 (0.49, 0.98) and the “OS from Enrollment HR (95% CI), CA with thalidomide randomization (interaction term)” value (multivariate analysis, patients with GEP-defined low-risk, n/N 33/304, P 0.003) was 0.27 (0.11, 0.64). The “OS from Enrollment HR (95% CI), randomization to thalidomide” value (multivariate analysis, patients with GEP-defined low-risk, n/N 149/304, P 0.766) was 1.08 (0.65, 1.79), the 7-year survival (patients exhibiting cytogenetic abnormalities (CA), randomized to thalidomide in TT2, vs 25% on control arm, p=0.015 (FIG. 1A)) was 54% and the “Overall Survival HR (95% CI), randomization to thalidomide” value (univariate analysis, n/N 175/351, P 0.158) was 0.78 (0.56, 1.10). For the same compound, the “OS from Enrollment HR (95% CI), randomization to thalidomide” value (univariate analysis, patients with GEP-defined low-risk, n/N 149/305, P 0.140) was 0.74 (0.50, 1.10).
